Like-named read-outs stand apart in the source and are kept apart here.
Assays:
mTORC1 = target: T1, mTORC1 (Homo sapiens, UniProt P42345+P62942); assay: Inhibition assay for mTORC1: phosphorylation of pS6K at Thr389, AlphaLISA in PC3 cells; format: cell-based; conditions: for IC50: read-out: pIC50 mTORC1 (converted)
T1 construct: endogenous in cells; host or cells: PC3 cells (human prostate adenocarcinoma)
Procedure: (§1) The IC50s of the inhibition of mTORC1 and mTORC2 were determined in vitro by determining the phosphorylation of pS6K at position Thr389 (mTORC1 inhibition) and pAkt at Ser473 (mTORC2 inhibition). In vitro studies were performed with AlphaLISA® technology using PC3 cells (Prostate Adenocarcinoma; Human (Homo sapiens)). The cells were seeded in 96 well plates and were treated for 24 hours with the different compounds. […] All analysis were performed using GraphPad Prism 7.0 (GraphPad Software, San Diego, USA).

mTORC2 = target: T2, mTORC2 (Homo sapiens, UniProt P42345+P62942); assay: Inhibition assay for mTORC2: phosphorylation of pAkt at Ser473, AlphaLISA in PC3 cells; format: cell-based; conditions: for IC50: read-out: pIC50 mTORC2 (converted)
T2 construct: endogenous in cells; host or cells: PC3 cells (human prostate adenocarcinoma)
Procedure: as §1

[1] = PC3 cells, treated 24 hours, pS6K Thr389, AlphaLISA, C16 diastereomer mixtures not separated
[2] = PC3 cells, treated 24 hours, pAkt Ser473, AlphaLISA, C16 diastereomer mixtures not separated

T2 sequence (P62942 2-108 limits assumed, other chains not shown): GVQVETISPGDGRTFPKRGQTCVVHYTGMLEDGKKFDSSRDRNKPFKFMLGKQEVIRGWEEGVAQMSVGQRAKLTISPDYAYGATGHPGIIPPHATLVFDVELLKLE

`COCCOCCOC1C[C@@H]2CC[C@@H](C)[C@@](O)(O2)C(=O)C(=O)N2CCCCC2C(=O)O[C@H]([C@H](C)C[C@@H]2CC[C@@H](O)[C@H](OC)C2)CC(=O)[C@H](C)/C=C(\C)[C@@H](O)[C@@H](OC)C(=O)[C@H](C)C[C@H](C)/C=C/C=C/C=C/1C` (stereo partly drawn) [Compound 227] showed an IC50 (mTORC1) of less than 0.316 nM and an IC50 (mTORC2) greater than 10000 nM.

`COC1C[C@@H]2CC[C@@H](C)[C@@](O)(O2)C(=O)C(=O)N2CCCCC2C(=O)O[C@H]([C@H](C)C[C@@H]2CC[C@@H](OC(=O)NCCN3CCCCC3)[C@H](OC)C2)CC(=O)[C@H](C)/C=C(\C)[C@@H](O)[C@@H](OC)C(=O)[C@H](C)C[C@H](C)/C=C/C=C/C=C/1C` (stereo partly drawn) [Compound 365] gave an IC50 (mTORC1) of less than 0.316 nM and an IC50 (mTORC2) of less than 1000 nM.

In the case of `CO[C@@H]1C[C@H](C[C@@H](C)[C@@H]2CC(=O)[C@H](C)/C=C(\C)[C@@H](O)[C@@H](OC)C(=O)[C@H](C)C[C@H](C)/C=C/C=C/C=C(\C)C(OC[C@H](O)c3ccccc3)C[C@@H]3CC[C@@H](C)[C@@](O)(O3)C(=O)C(=O)N3CCCCC3C(=O)O2)CC[C@H]1OCCO` (stereo partly drawn) [Compound 88], the “pIC50 mTORC1” value (mTORC1; [1]) is reported as “A (pIC50 for mTORC1 of >9.5 as A)” and the “pIC50 mTORC2” value (mTORC2; [2]) is reported as “B (5 to 6 as B)”.

For `CO[C@@H]1C[C@H](C[C@@H](C)[C@@H]2CC(=O)[C@H](C)/C=C(\C)[C@@H](O)[C@@H](OC)C(=O)[C@H](C)C[C@H](C)/C=C/C=C/C=C(\C)C(OCCO)C[C@@H]3CC[C@@H](C)[C@@](O)(O3)C(=O)C(=O)N3CCCC[C@H]3C(=O)O2)CC[C@H]1OCCCN1CC2(COC2)C1` (mixture of isomers) [Compound 78], the IC50 (mTORC1; [1]) was 0.316 to 3.16 nM and the IC50 (mTORC2; [2]) was greater than 10000 nM.

With `COC1C[C@@H]2CC[C@@H](C)[C@@](O)(O2)C(=O)C(=O)N2CCCCC2C(=O)O[C@H]([C@H](C)C[C@@H]2CC[C@@H](OCCN3CCN(C)CC3)[C@H](OC)C2)CC(=O)[C@H](C)/C=C(\C)[C@@H](O)[C@@H](OC)C(=O)[C@H](C)C[C@H](C)/C=C/C=C/C=C/1C` (stereo partly drawn) [Compound 320] the IC50 (mTORC1) was less than 0.316 nM and the IC50 (mTORC2) was less than 1000 nM.

For `CO[C@@H]1C[C@H](C[C@@H](C)[C@@H]2CC(=O)[C@H](C)/C=C(\C)[C@@H](O)[C@@H](OC)C(=O)[C@H](C)C[C@H](C)/C=C/C=C/C=C(\C)C(O[C@H](CO)c3ccccc3)C[C@@H]3CC[C@@H](C)[C@@](O)(O3)C(=O)C(=O)N3CCCCC3C(=O)O2)CC[C@H]1O` (stereo partly drawn) [Compound 204], the IC50 (mTORC1) was less than 0.316 nM and the IC50 (mTORC2) was less than 1000 nM.

Work on `CO[C@@H]1C[C@H](C[C@@H](C)[C@@H]2CC(=O)[C@H](C)/C=C(\C)[C@@H](O)[C@@H](OC)C(=O)[C@H](C)C[C@H](C)/C=C/C=C/C=C(\C)C(OCC3CCOCC3)C[C@@H]3CC[C@@H](C)[C@@](O)(O3)C(=O)C(=O)N3CCCCC3C(=O)O2)CC[C@H]1O` (stereo partly drawn) [Compound 226] yielded an IC50 (mTORC1) of 0.316 to 3.16 nM and an IC50 (mTORC2) greater than 10000 nM.

Molecule `COC1C[C@@H]2CC[C@@H](C)[C@@](O)(O2)C(=O)C(=O)N2CCCCC2C(=O)O[C@H]([C@H](C)C[C@@H]2CC[C@@H](OC(=O)NCc3ccccn3)[C@H](OC)C2)CC(=O)[C@H](C)/C=C(\C)[C@@H](O)[C@@H](OC)C(=O)[C@H](C)C[C@H](C)/C=C/C=C/C=C/1C` (stereo partly drawn) [Compound 333] has an IC50 (mTORC1) of less than 0.316 nM and an IC50 (mTORC2) of less than 1000 nM.

`CO[C@@H]1C[C@H](C[C@@H](C)[C@@H]2CC(=O)[C@H](C)/C=C(\C)[C@@H](O)[C@@H](OC)C(=O)[C@H](C)C[C@H](C)/C=C/C=C/C=C(\C)C(OCCO)C[C@@H]3CC[C@@H](C)[C@@](O)(O3)C(=O)C(=O)N3CCCC[C@H]3C(=O)O2)CC[C@H]1OC(=O)NCCc1ccccc1` (mixture of isomers) [Compound 1, [(1R,2R,4S)-4-[(2R)-2-[(1R,9S,12SR,15R,16E,18R,19R,21R,23S,24E,26E,28E,32SR,35R)-1,18-dihydroxy-30-(2-hydroxyethoxy)-19-methoxy-15,17,21,23,29,35-hexamethyl-2,3,10,14,20-pentaoxo-11,36-dioxa-4-azatricyclo[30.3.1.0^4,9]hexatriaconta-16,24,26,28-tetraen-1^2-yl]propyl]-2-methoxy-cyclohexyl] N-(2-phenylethyl)carbamate] was tested, and the IC50 (mTORC1; [1]) was less than 0.316 nM and the IC50 (mTORC2; [2]) was greater than 10000 nM.
